Data published in US9949948B2, “Artemisinin and its derivatives for use in the treatment of trauma haemorrhage and associated conditions” (Queen Mary University of London, priority 2011, dated 2018).

How the values were obtained:
HS-rats = assay: Organ injury and dysfunction induced by trauma haemorrhage (haemorrhagic shock) in the rat; type: in vivo, Wistar rats
Method: Thirty-five male Wistar rats (271±5 g) were anaesthetised with sodium thiopentone (120 mg/kg i.p., LINK Pharmaceuticals Ltd., West Sussex, UK) and anaesthesia was maintained by supplementary injections (˜10 mg/kg i.v.) of sodium thiopentone as and when required. The animals were placed onto a thermostatically controlled heating mat (Harvard Apparatus Ltd., Kent, UK) and body temperature was maintained at 37±1° C. by means of a rectal probe attached to a homeothermic blanket. A tracheotomy was performed by inserting into the lumen of the trachea a small length of polyethylene tubing [Internal Diameter (ID) 1.67 mm, Portex, Kent, UK] to maintain airway patency and facilitate spontaneous respiration.
The right carotid artery was cannulated (ID 0.58 mm, Portex) to facilitate the withdrawal of blood using a heparinised syringe. The right jugular vein was cannulated (ID 0.40 mm, Portex) for the administration of Ringer's Lactate (RL), shed blood, test compounds and/or vehicle. The bladder was also cannulated (ID 0.76 mm, Portex) for the collection of urine. Upon completion of the surgical procedure, cardiovascular parameters were allowed to stabilise for a period of 15 min.
After the stabilisation period, blood was withdrawn via the cannula inserted in the right carotid artery in order to achieve a fall in MAP to 35±5 mmHg within 10 min. From this point onwards, MAP was maintained at 35±5 mmHg for a period of 90 min either by further withdrawal of blood during the compensation phase (MAP rises following blood withdrawal due to sympathetic response) or administration of Ringer's Lactate i.v. during the decompensation phase (animals are unable to increase and maintain high MAP). The average volume of blood withdrawn during haemorrhage was 9.8±0.2 ml (n=31, across all haemorrhaged groups). At 90 min after initiation of haemorrhage, resuscitation was performed with 20 ml/kg Ringer's Lactate i.v. over a period of 10 min and then half the shed blood mixed with 100 u/ml heparinised saline i.v. over a period of 50 min. At the end of 1 h resuscitation, an i.v. infusion of Ringer's Lactate (1.5 ml/kg/h) was started as fluid replacement and maintained for a further 3 h.
Four hours after the onset of resuscitation, 1.2 ml blood was collected from the right carotid artery and decanted into serum gel tubes (Sarstedt, Numbrecht, Germany), after which the heart was removed to terminate the experiment. The samples were centrifuged (9900 rpm for 3 min) to separate serum from which urea, creatinine, aspartate aminotransferase (AST), alanine aminotransferase (ALT) and creatinine kinase (CK) were measured within 24 hours (Idexx Laboratories Ltd., West Yorkshire, UK). Urine collected during the last 3 h of the experiment was analysed for creatinine levels in order to estimate creatinine clearance as an indicator of glomerular dysfunction and was calculated as follows: […]
Sham-operated rats underwent identical surgical procedures but without haemorrhage or resuscitation.

mice injected with LPS = assay: Organ injury and dysfunction in a mouse model of septic shock (LPS); type: in vivo, C57BL/6 mice; conditions: 10 mg/kg, all three treatment groups (i.p. 1 h post-LPS, i.v. 1 h post-LPS, i.p. 30 min pre-LPS)
Method: Twenty-six male C57BL/6 mice (Harlan Laboratories, Wyton, UK), weighing 20-30 g were used for this experiment. At time point 0 (t=0 h) mice received either LPS (9 mg/kg in 5 ml/kg 0.9% NaCl) or vehicle (5 ml/kg 0.9% NaCl) intraperitoneally (i.p.). Mice were then sacrificed 16-18 h after the injection of LPS by induction of anaesthesia with ketamine (100 mg/ml)/xylazine (20 mg/ml) solution in a 2:1 ratio and removal of the heart.
At the end of the experiment, 0.7 ml blood was collected from the right carotid artery and decanted into serum gel tubes (Sarstedt, Numbrecht, Germany). The samples were centrifuged (9900 rpm for 3 min) to separate serum from which urea, creatinine and alanine aminotransferase (ALT) were measured within 24 hours (Idexx Laboratories Ltd., West Yorkshire, UK).
Share-operated nice received saline (5 ml/kg i.p.) instead of LPS.

[1] = 1 mg/kg i.v. on resuscitation, P>0.05
[2] = both 3 and 10 mg/kg i.v. on resuscitation, P<0.05

## C[C@H]1[C@H](OC(=O)CCC(=O)O)O[C@@H]2O[C@@]3(C)CC[C@H]4[C@H](C)CC[C@@H]1[C@@]24OO3 [artesunate]
HS-rats; [1]
  rise in serum ALT: no significant effect
  rise in serum AST: no significant effect
  rise in serum creatinine: no significant effect
  rise in serum creatinine kinase: no significant effect
  rise in serum urea: no significant effect
HS-rats; 3 mg/kg i.v. on resuscitation, 4 h after onset of resuscitation, P<0.05 vs HS-rats
  rise in serum urea: significantly attenuated
HS-rats; 3 mg/kg i.v. on resuscitation, P<0.005 vs HS-rats
  rise in serum creatinine: significantly attenuated
HS-rats; 10 mg/kg i.v. on resuscitation, P<0.005
  rise in serum creatinine: significantly attenuated
HS-rats; 1, 3 or 10 mg/kg i.v. on resuscitation, P>0.05
  decline in MAP caused by haemorrhage during the resuscitation phase: failed to attenuate
HS-rats; both 3 and 10 mg/kg i.v. on resuscitation, P<0.005
  rise in serum ALT: significantly attenuated
HS-rats; [2]
  rise in serum AST: significantly attenuated
  rise in serum creatinine kinase: significantly attenuated
Mice injected with LPS
  rise in serum ALT: no significant effect
Mice injected with LPS; P>0.05
  rise in serum creatinine: no significant effect
  rise in serum urea: no significant effect
